{"source": "patent US20110075702A1", "about": "“THERMAL SENSING EQUIPMENT AND THERMAL SENSING PROCESS” (JOHNSON CONTROLS TECHNOLOGY COMPANY, priority 2007, published 2011)", "origin": "cited, not measured here", "key": {"[1]": {"conditions": "@ 20° C. (68° F.)"}}, "data": [{"smiles": "CC(=O)OCC(C)OC(C)=O", "note": "(stereo not shown) [THERMAL FLUID #2, propylene glycol diacetate]", "values": [{"measurement": "NFPA Fire", "setting": "NFPA fire diamond Flammability Value", "value": 2}, {"measurement": "NFPA Health", "setting": "NFPA fire diamond Health Value", "value": 1}, {"measurement": "NFPA Reactivity", "setting": "NFPA fire diamond Reactivity Value", "value": 0}, {"measurement": "Solubility in Water", "setting": "[1]", "value": 77, "unit": "mg/mL"}]}]}
